Measurements: ChEMBL document CHEMBL5512598, “Current advances and development strategies of orally bioavailable PROTACs” (Eur J Med Chem, 2023)

Tests used:
[1] = molecular target: von Hippel-Lindau disease tumor suppressor/Polycomb protein EED (Homo sapiens, UniProt O75530+P40337); assay: PROTAC activity at VHL/EED in human DB cells assessed as degradation of EED protein expression incubated for 24 hrs by Western blotting analysis; assay type: cell-based
[2] = molecular target: von Hippel-Lindau disease tumor suppressor/Histone-lysine N-methyltransferase EZH2 (Homo sapiens, UniProt Q15910+P40337); assay: PROTAC activity against VHL/wild type EZH2 in human DB cells assessed as degradation of EZH2 protein expression incubated for 24 hrs by Western blot analysis; assay type: cell-based
[3] = molecular target: von Hippel-Lindau disease tumor suppressor/Histone-lysine N-methyltransferase EZH2 (Homo sapiens, UniProt Q15910+P40337, Y641N); assay: PROTAC activity against VHL/EZH2 Y641N mutant in human DB cells assessed as degradation of EZH2 protein expression incubated for 24 hrs by Western blot analysis; assay type: cell-based
[4] = Oral bioavailability in BALB/c mouse at 30 mg/kg measured for 24 hrs by UPLC-MS/MS analysis; assay type: ADME, organism-based; conditions: in vivo
[5] = Cmax in BALB/c mouse at 30 mg/kg measured for 24 hrs by UPLC-MS/MS analysis; assay type: ADME, organism-based; conditions: in vivo
[6] = Tmax in BALB/c mouse at 30 mg/kg measured for 24 hrs by UPLC-MS/MS analysis; assay type: ADME, organism-based; conditions: in vivo
[7] = AUC (0 to t) in BALB/c mouse at 30 mg/kg measured for 24 hrs by UPLC-MS/MS analysis; assay type: ADME, organism-based; conditions: in vivo
[8] = Cmax in CD-1 mouse plasma at 10 mg/kg, po by LC-MS/MS analysis; assay type: ADME, organism-based
[9] = Half life in CD-1 mouse at 10 mg/kg, po measured for 24 hrs by LC-MS/MS analysis; assay type: ADME, organism-based; conditions: in vivo
[10] = AUC (0 to t) in CD-1 mouse at 10 mg/kg, po measured for 24 hrs by LC-MS/MS analysis; assay type: ADME, organism-based; conditions: in vivo
[11] = Cmax in C57BL/6 mouse at 30 mg/kg, po by LC-MS/MS analysis; assay type: ADME, organism-based; conditions: in vivo
[12] = Tmax in C57BL/6 mouse at 30 mg/kg, po by LC-MS/MS analysis; assay type: ADME, organism-based; conditions: in vivo
[13] = Half life in C57BL/6 mouse at 30 mg/kg, po by LC-MS/MS analysis; assay type: ADME, organism-based; conditions: in vivo
[14] = AUC (0 to t) in C57BL/6 mouse at 30 mg/kg, po by LC-MS/MS analysis; assay type: ADME, organism-based; conditions: in vivo
[15] = Oral bioavailability in C57BL/6 mouse at 30 mg/kg by LC-MS/MS analysis; assay type: ADME, organism-based; conditions: in vivo
[16] = molecular target: Protein cereblon/Leucine-rich repeat serine/threonine-protein kinase 2 (Homo sapiens, UniProt Q5S007+Q96SW2); assay: PROTAC activity at CRBN/LRRK2 in human MOLT-4 cells assessed as induction of LRRK2 degradation at 1 uM by Western blot analysis relative to control; assay type: cell-based
[17] = molecular target: von Hippel-Lindau disease tumor suppressor/Bromodomain-containing protein 9 (Homo sapiens, UniProt Q9H8M2+P40337); assay: PROTAC activity at VHL/BRD9 in human HeLa cells assessed as induction of protein degradation […]; assay type: cell-based
[18] = Oral bioavailability in Sprague-Dawley rat at 5 mg/kg incubated for 24 hrs by LC-MS/MS analysis; assay type: ADME, organism-based; conditions: in vivo
[19] = Oral bioavailability in ICR mouse at 5 mg/kg by LC-MS/SM analysis; assay type: ADME, organism-based; conditions: in vivo
[20] = Clearance in mouse at 10 mg/kg, po measured upto 24 hrs by LC-MS/MS analysis; assay type: ADME, organism-based; conditions: in vivo
[21] = Clearance in Sprague-Dawley rat at 0.5 mg/kg, iv; assay type: ADME, organism-based; conditions: in vivo
[22] = molecular target: Voltage-gated inwardly rectifying potassium channel KCNH2 (Homo sapiens, UniProt Q12809); assay: Inhibition of hERG (unknown origin); assay type: toxicity
[23] = molecular target: Cytochrome P450 3A4 (Homo sapiens, UniProt P08684); assay: Inhibition of CYP3A4 (unknown origin); assay type: ADME
[24] = molecular target: Cytochrome P450 2C19 (Homo sapiens, UniProt P33261); assay: Inhibition of CYP2C19 (unknown origin); assay type: ADME
[25] = molecular target: Cytochrome P450 2D6 (Homo sapiens, UniProt P10635); assay: Inhibition of CYP2D6 (unknown origin); assay type: ADME
[26] = molecular target: Protein cereblon/Tyrosine-protein kinase BTK (Homo sapiens, UniProt Q06187+Q96SW2, C481S); assay: PROTAC activity at CRBN/BTK C481S mutant in human DLBCL cells assessed as degradation of BTK protein incubated for 4 hrs by HTRF assay; assay type: cell-based
[27] = AUC in mouse at 30 mg/kg, po; assay type: ADME, organism-based; conditions: in vivo
[28] = Half life in mouse at 30 mg/kg, po measured upto 24 hrs by LC-MS/MS analysis; assay type: ADME, organism-based; conditions: in vivo

von Hippel-Lindau disease tumor suppressor/Histone-lysine N-methyltransferase EZH2 (Homo sapiens, UniProt Q15910+P40337, Y641N), sequence (P40337 whole entry, stated change not applied): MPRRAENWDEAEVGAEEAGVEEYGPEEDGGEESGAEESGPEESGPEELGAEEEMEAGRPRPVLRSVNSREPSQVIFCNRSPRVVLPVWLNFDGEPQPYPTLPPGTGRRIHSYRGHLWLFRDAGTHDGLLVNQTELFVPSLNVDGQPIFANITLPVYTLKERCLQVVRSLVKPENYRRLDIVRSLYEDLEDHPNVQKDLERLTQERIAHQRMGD
von Hippel-Lindau disease tumor suppressor/Histone-lysine N-methyltransferase EZH2 (Homo sapiens, UniProt Q15910+P40337, Y641N), sequence (Q15910 whole entry Y641N, stated change not applied): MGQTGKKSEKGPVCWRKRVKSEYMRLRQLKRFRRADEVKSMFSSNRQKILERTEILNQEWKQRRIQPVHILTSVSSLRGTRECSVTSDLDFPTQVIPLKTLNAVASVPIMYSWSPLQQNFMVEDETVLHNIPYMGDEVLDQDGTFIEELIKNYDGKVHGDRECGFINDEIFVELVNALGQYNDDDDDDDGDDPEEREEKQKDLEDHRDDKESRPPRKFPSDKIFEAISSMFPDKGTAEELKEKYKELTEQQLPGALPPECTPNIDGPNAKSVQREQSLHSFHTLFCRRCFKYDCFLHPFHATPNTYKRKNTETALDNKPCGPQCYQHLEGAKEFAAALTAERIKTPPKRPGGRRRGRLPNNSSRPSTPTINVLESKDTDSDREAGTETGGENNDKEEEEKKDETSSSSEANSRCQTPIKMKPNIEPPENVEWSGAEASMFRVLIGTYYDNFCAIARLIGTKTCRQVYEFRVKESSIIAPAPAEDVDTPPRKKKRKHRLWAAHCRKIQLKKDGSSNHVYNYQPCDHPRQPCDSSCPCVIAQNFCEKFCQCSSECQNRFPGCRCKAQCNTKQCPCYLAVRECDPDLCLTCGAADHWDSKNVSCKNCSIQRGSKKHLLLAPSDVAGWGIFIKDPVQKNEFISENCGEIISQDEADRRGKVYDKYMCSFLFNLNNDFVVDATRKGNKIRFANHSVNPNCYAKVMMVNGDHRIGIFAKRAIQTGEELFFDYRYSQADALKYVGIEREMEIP
von Hippel-Lindau disease tumor suppressor/Polycomb protein EED, sequence (O75530 whole entry): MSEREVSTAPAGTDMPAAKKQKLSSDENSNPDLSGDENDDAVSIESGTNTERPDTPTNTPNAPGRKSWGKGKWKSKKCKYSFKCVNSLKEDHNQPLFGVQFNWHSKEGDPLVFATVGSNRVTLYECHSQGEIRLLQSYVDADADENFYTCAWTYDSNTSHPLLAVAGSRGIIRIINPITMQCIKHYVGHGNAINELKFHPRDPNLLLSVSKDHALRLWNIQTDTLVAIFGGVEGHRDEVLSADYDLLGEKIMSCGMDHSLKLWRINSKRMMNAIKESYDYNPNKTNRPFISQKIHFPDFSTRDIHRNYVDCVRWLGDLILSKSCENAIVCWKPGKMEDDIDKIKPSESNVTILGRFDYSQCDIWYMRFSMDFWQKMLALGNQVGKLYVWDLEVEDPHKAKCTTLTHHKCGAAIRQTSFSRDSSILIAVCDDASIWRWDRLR
von Hippel-Lindau disease tumor suppressor/Polycomb protein EED, sequence (P40337 whole entry): as the sequence (P40337 whole entry, stated change not applied) above
von Hippel-Lindau disease tumor suppressor/Bromodomain-containing protein 9, sequence (Q9H8M2 whole entry): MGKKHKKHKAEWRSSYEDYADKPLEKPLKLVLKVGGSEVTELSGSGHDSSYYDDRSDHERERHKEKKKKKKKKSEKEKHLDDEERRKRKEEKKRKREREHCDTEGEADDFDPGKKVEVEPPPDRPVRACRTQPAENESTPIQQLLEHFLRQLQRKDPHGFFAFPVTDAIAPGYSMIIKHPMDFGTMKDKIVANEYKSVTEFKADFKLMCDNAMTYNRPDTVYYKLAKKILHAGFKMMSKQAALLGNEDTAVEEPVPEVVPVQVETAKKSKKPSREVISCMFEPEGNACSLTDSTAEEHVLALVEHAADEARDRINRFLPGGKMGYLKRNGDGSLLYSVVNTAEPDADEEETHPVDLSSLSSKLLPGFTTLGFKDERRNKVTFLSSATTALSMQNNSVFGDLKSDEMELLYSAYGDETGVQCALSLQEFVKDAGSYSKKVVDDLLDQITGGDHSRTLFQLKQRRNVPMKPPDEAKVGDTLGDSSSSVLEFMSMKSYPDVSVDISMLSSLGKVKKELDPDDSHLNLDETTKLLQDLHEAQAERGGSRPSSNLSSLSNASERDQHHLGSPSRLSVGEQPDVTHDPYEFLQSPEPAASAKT
von Hippel-Lindau disease tumor suppressor/Bromodomain-containing protein 9, sequence (P40337 whole entry): as the sequence (P40337 whole entry, stated change not applied) above
Cytochrome P450 2C19, sequence (P33261 whole entry): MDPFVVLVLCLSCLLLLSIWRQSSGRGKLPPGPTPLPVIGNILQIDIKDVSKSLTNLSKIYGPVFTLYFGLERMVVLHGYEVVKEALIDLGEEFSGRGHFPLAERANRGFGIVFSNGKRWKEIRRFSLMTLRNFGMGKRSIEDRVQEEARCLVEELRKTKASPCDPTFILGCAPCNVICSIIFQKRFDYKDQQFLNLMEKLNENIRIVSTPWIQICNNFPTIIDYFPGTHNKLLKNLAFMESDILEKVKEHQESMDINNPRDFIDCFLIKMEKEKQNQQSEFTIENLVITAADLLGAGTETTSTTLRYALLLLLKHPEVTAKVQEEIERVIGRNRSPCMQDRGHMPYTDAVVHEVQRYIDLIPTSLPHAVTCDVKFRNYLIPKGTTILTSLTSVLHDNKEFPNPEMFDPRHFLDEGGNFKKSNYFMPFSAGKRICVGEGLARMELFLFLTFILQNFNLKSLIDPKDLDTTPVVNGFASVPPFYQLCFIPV
Cytochrome P450 2D6, sequence (P10635 whole entry): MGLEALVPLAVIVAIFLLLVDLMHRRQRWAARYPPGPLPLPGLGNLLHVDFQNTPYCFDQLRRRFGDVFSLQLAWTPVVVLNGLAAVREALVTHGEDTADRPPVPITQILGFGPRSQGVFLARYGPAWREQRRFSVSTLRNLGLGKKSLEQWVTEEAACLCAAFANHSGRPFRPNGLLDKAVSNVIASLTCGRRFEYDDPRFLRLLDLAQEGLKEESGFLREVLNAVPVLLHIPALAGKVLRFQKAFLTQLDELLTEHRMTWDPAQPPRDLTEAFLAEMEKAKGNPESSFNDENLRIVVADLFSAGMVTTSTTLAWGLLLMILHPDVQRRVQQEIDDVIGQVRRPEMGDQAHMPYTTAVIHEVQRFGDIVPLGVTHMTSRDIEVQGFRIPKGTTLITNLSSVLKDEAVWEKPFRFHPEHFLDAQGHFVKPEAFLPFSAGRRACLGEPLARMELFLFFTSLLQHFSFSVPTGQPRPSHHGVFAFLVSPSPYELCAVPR
von Hippel-Lindau disease tumor suppressor/Histone-lysine N-methyltransferase EZH2 (Homo sapiens, UniProt Q15910+P40337), sequence (Q15910 whole entry): as the sequence (Q15910 whole entry Y641N, stated change not applied) above, with N641Y counted along it
von Hippel-Lindau disease tumor suppressor/Histone-lysine N-methyltransferase EZH2 (Homo sapiens, UniProt Q15910+P40337), sequence (P40337 whole entry): as the sequence (P40337 whole entry, stated change not applied) above
Cytochrome P450 3A4, sequence (P08684 whole entry): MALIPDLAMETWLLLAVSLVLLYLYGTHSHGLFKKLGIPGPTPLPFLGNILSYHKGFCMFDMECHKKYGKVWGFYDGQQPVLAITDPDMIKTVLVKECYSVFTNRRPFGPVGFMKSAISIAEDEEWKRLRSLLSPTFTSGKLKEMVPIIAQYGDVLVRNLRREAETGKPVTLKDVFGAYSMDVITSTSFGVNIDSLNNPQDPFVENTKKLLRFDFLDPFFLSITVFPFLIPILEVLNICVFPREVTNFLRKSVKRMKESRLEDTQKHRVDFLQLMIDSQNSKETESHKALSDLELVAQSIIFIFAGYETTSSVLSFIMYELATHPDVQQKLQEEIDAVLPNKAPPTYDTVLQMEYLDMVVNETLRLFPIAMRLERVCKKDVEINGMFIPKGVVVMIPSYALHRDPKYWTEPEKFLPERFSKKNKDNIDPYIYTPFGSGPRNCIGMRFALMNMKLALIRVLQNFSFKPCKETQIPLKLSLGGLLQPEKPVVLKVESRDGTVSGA

Cc1ncsc1-c1ccc(CNC(=O)[C@@H]2C[C@@H](O)CN2C(=O)[C@@H](NC(=O)[C@H]2C[C@@H](NC(=O)c3ccc(-c4cnc(NCc5ccco5)n5cnnc45)cc3)C2)C(C)(C)C)cc1
DC50 [1]: 111 nM | DC50 [2]: 275 nM | DC50 [3]: 275 nM

Cc1ncsc1-c1ccc(CNC(=O)[C@@H]2C[C@@H](O)CN2C(=O)[C@@H](NC(=O)COCCCCOc2ccc(C3CCN(C4=Nn5c(nnc5C(F)(F)F)CC4)CC3)cc2)C(C)(C)C)cc1
bioavailability [4]: 23% | Cmax [5]: 7060 ng/mL | Tmax [6]: 1.67 h | AUC(0-t) at 24 h [7]: 18000 ng·h/mL

COc1cc(N2CCC(N3CCN(CCC#Cc4cccc5c4CN(C4CCC(=O)NC4=O)C5=O)CC3)CC2)ccc1Nc1ncc(Cl)c(Nc2ccccc2P(C)(C)=O)n1 (configuration not stated)
Cmax [8]: 3680 ng/mL | half-life [9]: 2.08 h | AUC(0-t) at 24 h [10]: 19700 ng·h/mL

CNc1nc(Nc2ccc(C(=O)N3CCN(C[C@H]4CC[C@H](CSC(C)(C)[C@H](NC(=O)C5(F)CC5)C(=O)N5C[C@H](O)C[C@H]5C(=O)NCc5ccc(-c6scnc6C)cc5)CC4)CC3)cc2OC)ncc1Cl
Cmax [11]: 3620 ng/mL | Tmax [12]: 2 h | half-life [13]: 21.9 h | AUC(0-t) [14]: 21300 ng·h/mL | bioavailability [15]: 15%

C[C@@H]1C=C2C=C[C@@H](C)[C@@H](CC[C@@H]3C[C@@H](O)CC(=O)O3)[C@@H]2[C@H](OC(=O)NCCOCCOCCNc2cccc3c2C(=O)N(C2CCC(=O)NC2=O)C3=O)C1 (some centres not stated)
Emax [16]: 44%

COc1cc(-c2cn(C)c(=O)c3cnccc23)cc(Cl)c1CN1CCC(C2CCN(C(=O)c3ccc(NC4CCC(=O)NC4=O)cc3C(F)(F)F)CC2)CC1 (configuration not stated)
DC50 [17]: 11 nM | bioavailability [18]: 48% | bioavailability [19]: 100% | CL/F [20]: 30 mL/min/kg | clearance [21]: 74 mL/min/kg | IC50 [22]: 7500 nM | IC50 [23]: 5600 nM | IC50 [24]: 1900 nM | IC50 [25]: > 30000 nM

CN1CCN([C@@H]2CCCN(c3cnc(C(N)=O)c(Nc4ccc(C5CCN(CC6CCN(c7ccc(C(=O)N[C@H]8CCC(=O)NC8=O)nc7)CC6)CC5)cc4)n3)C2)C1=O [NX-5948]
DC50 [26]: 0.32 nM

Cc1ncsc1-c1ccc(CNC(=O)[C@@H]2C[C@@H](O)CN2C(=O)[C@@H](NC(=O)CCCCCCCCCCNC(=O)OC2C[C@@H](C)C=C3C=C[C@H](C)[C@H](CC[C@@H]4C[C@H](O)CC(=O)O4)[C@H]32)C(C)(C)C)cc1 (some centres not stated)
Cmax [11]: 470 ng/mL | Tmax [12]: 8 h | half-life [13]: 5.1 h | AUC(0-t) [14]: 5000 ng·h/mL

O=C1CC[C@H](N2Cc3cc(N4CCN(CC5CCN(c6ccc([C@@H]7c8ccc(O)cc8CC[C@@H]7c7ccccc7)cc6)CC5)CC4)ccc3C2=O)C(=O)N1 [VEPDEGESTRANT]
AUC [27]: 5720 ng·h/mL | half-life [28]: 28 h
